Patent US11299710B2, “Brown adipocyte progenitors in human skeletal muscle” (ENERGESIS PHARMACEUTICALS, INC., priority 2011, dated 2022)
Where “and” joins values, the source holds several entries; their conditions need not be identical. Identical values can stand only once.

Key:
[1] = test system: human fetal muscle CD34+ cells; test: UCP1 mRNA expression by quantitative RT-PCR in cultured fetal muscle CD34+ cells; assay type: cell-based; settings: rosiglitazone 1 μM
Protocol: UCP1 mRNA expression in fetal muscle CD34+ cells could be modulated by drug treatment. Cell-permeating cAMP derivatives strongly stimulated (7 to 8-fold) UCP1 mRNA expression in both primary cultured and expanded cells. The effects of cAMP derivatives, 8-bromo-cAMP, 0.25 mM or (4-chlorophenylthio)-cAMP, 0.25 mM (cAMP) on UCP1 mRNA expression in CD34+ cells in primary culture (PC) or expanded up to passage 3 (P3) are shown in FIG. 3B. All the cells were grown for 4-6 days in EGM2 medium and then placed for 8-12 days in the adipogenic medium described under Materials and Methods. The results are means±s.e.m. of arbitrary values normalized using the corresponding cyclophilin A values. […]
Rosiglitazone, a PPARγ agonist, had no effect in primary culture cells but strongly stimulated (8-fold) UCP1 mRNA expression in expanded cells. The results are expressed as in FIG. 3B (**p<0.01, n=4-7). […]
Total cell RNA was prepared using the kit NucleoSpin® RNAII (Clontech, Palo Alto, Calif.), Extract-all solution (Eurobio, Courtaboeuf, France) or PureLink RNA Isolation Kit (Invitrogen #12183-016) and quantified by Biophotometry (Biophotometer, Eppendorf). […]
Arbitrary units were determined by normalizing target mRNA levels to cyclophilin mRNA levels (based on Cts), wherein the cyclophilin levels were first divided by 100,000 for ease of reference. […]

[2] = test system: UCP1 mRNA in human skeletal muscle (vastus lateralis); test: UCP1 mRNA expression in skeletal muscle biopsies before and after rosiglitazone treatment in vivo
Protocol: Since the PPARγ agonist rosiglitazone was a strong inducer of UCP1 mRNA expression in muscle CD34+ cells in culture, the effect of this compound in vivo in humans was investigated. Vastus lateralis muscle biopsies from 7 obese patients with type 2 diabetes mellitus treated for the management of their metabolic syndrome with rosiglitazone were used. The biopsies were obtained before and after 8 weeks of treatment with rosiglitazone (2×4 mg per day). […] In that study rosiglitazone, concomitantly with the improvement in insulin sensitivity, increased the level of expression of UCP1 in muscle by about 1.6-fold. […] The results are the means±s.e.m. of arbitrary values normalized using the corresponding cyclophilin A values (n=7, *p<0.05 vs. control).
In FIG. 5, showing UCP1 mRNA levels in skeletal muscle biopsies from a patient group (n=7), “control” corresponds to levels before treatment, and “Rosi” corresponds to levels after treatment (8 weeks) with rosiglitazone. Being a longitudinal study the effect of rosiglitazone on UCP1 levels in each individual (comparison of individual values for the “control”-before and “Rosi”-after conditions) were determined. Starting with 25 ng cDNA (produced by reverse transcription of RNA) the threshold of detection (Ct) during real-time PCR was about 22 for UCP1 and about 18 for cyclophilin. The effect of rosiglitazone (UCP1 level at end of treatment vs. before treatment) were as follows: […]
Quantitative real-time PCR was performed using ABI rapid thermal cycler system and a SYBR Green PCR master mix (Applied Biosystems, Foster City, Calif.), or an ABI 7300 Real-time PCR instrument, a TaqMan Gene Expression Master Mix (Applied Biosystems #4369016) and TaqMan Gene Expression Pre-formulated Assays for human uncoupling protein-1 (GenBank NM_021833) (Applied Biosystems Assay ID Hs01084772_m1, TaqMan Gene Expression Assay part #4351372) and for human peptidylprolyl isomerase A “cyclophilin A” (GenBank NM_021130) (Applied Biosystems Assay ID Hs99999904_m1, TaqMan® Gene Expression Assay part #4448485). Cyclophilin A was used as a control to account for any variations due to the efficiency of the reverse transcription. The upstream and downstream oligonucleotide primers were chosen on both sides of an intron to prevent amplification of contaminating genomic DNA.
Primers used for real time quantitative PCR in human skeletal muscle are as follows:
Data are expressed as means±s.e.m. Significances were evaluated using the unpaired Student's t-test. A paired Student's t-test was used to determine the effects of rosiglitazone on human skeletal muscle UCP1 mRNA levels. Significances were set at p<0.05.

CD31- cells = test: Quantification of UCP1 protein by fluorescence immunohistochemistry in CD31- cells; assay type: cell-based, human; settings: rosiglitazone 1 μM in MDM from day 0, 15 days
From the text: Using this method, UCP1 staining can be evaluated using automated high content imaging. GE Healthcare's InCell 1000 High Content Imager combines automated microscopy with high content image analysis software (InCell Developer Toolbox). The reference compound rosiglitazone was used to promote the differentiation of the CD31− cells and increase the expression of UCP1. Using a primary antibody that recognizes UCP1, Abcam ab23841, and a secondary antibody, Alexafluor 488 goat anti-rabbit antibody, we can quantify relative UCP1 levels per cell.
Referring to FIGS. 17A-17B, culturing and differentiation of CD31− cells into brown adipocytes were performed as described in Methods without (FIG. 17A) or with (FIG. 17B) rosiglitazone (1 μM) added to the adipogenic medium (MDM) from day 0. […] Alexafluor 488 goat anti-rabbit antibody was used to quantify relative UCP1 levels (green). […] UCP1 signal intensity was measured using the GE Developer Toolbox software on images collected on the InCell 1000 Automated High Content Imager. […]
Culturing and differentiation of CD31− cells into brown adipocytes were performed using adipogenic differentiation medium lacking (Minimal Differentiation Medium, MDM) or containing 1 μM rosiglitazone (Reference Differentiation Medium, RDM). […] As a readout, total intensity of UCP1 signal within the cell was used, normalized to cell number.

[3] = test system: human fetal muscle-derived CD31- cells; test: UCP1 mRNA expression by quantitative RT-PCR in CD31- cells; assay type: cell-based; settings: day 16 of differentiation; normalized with cyclophilin A; rosiglitazone 1 microM in MDM from day 0; BMP7 6 nM 2 days before day 0 then MDM
Protocol: UCP1 mRNA expression in human fetal muscle-derived CD31− cells at day 16 of differentiation were measured.
All the cells were grown for 3 days in proliferation medium (EGM2) and then (on day 0) placed for 16 days in adipogenic differentiation medium (Minimal Differentiation Medium, MDM). The “EGM2” cells were maintained in EGM2 medium all along. Rosiglitazone (1 microM) was added from day 0 and kept in the medium until the end of the study. BMP7 (6 nM) was added 2 days before day 0 and removed at day 0. Effects of differentiation medium (MDM vs. EGM2), rosiglitazone (MDM+rosi vs. MDM) and BPM7 (MDM+BMP7 vs. MDM) are shown as fold change (as compared to EGM2 cells) on UCP1 mRNA expression in human muscle-derived brown adipocyte progenitor cells (CD31-). […]
Quantitative real-time PCR was performed using ABI rapid thermal cycler system and a SYBR Green PCR master mix (Applied Biosystems, Foster City, Calif.), or an ABI 7300 Real-time PCR instrument, a TaqMan Gene Expression Master Mix (Applied Biosystems #4369016) and TaqMan Gene Expression Pre-formulated Assays for human uncoupling protein-1 (GenBank NM_021833) (Applied Biosystems Assay ID Hs01084772_m1, TaqMan Gene Expression Assay part #4351372) and for human peptidylprolyl isomerase A “cyclophilin A” (GenBank NM_021130) (Applied Biosystems Assay ID Hs99999904_m1, TaqMan® Gene Expression Assay part #4448485). […]

[4] = test system: CD31+ cells (CD34+/CD45-/CD56-/CD146-/CD31+); test: Differentiation of CD31+ cells in adipogenic medium; assay type: cell-based, human; settings: MDM with or without rosiglitazone or BMP7
Protocol: (§1) With the aim of further purifying the CD34+ cells in search for the purest physiological brown adipocyte progenitors, stroma-vascular cells were purified from two independent samples of human fetal skeletal muscle (18-19 weeks of gestation). Following the CD45, CD56, CD34, and CD146 sorting described above, an additional step of FACS sorting using an anti-CD31 antibody was performed. The cells were sorted based on the presence of the mature endothelial cell surface marker CD31 (CD31+) or absence of that marker (CD31-). It was hypothesized that the CD31− subpopulation may be a purer progenitor of human brown adipocytes. The CD31− cell fraction amounted to about 80% of the CD34+ cell population derived from skeletal muscle. For purpose of simplicity, CD34+/CD45−/CD56−/CD146−/CD31− are called “CD31−” cells [EMC309 (CD31−) and EMC314 (CD31−)]. CD34+/CD45−/CD56−/CD146−/CD31+ are called “CD31+” cells [EMC309 (CD31+) and EMC314 (CD31+)]. In addition, the myogenic progenitor cells expressing the cell surface antigen CD56 (CD56+) were also sorted and cultured: CD34+/CD45−/CD56+ (from EMC314) and CD45−/CD56+ (from EMC309) are called “CD56+” cells [EMC309 (CD56+) and EMC314 (CD56+)].
(§2) The sorted cells (CD31−, CD31+, and CD56+ cell populations) were grown under the same conditions as described above, i.e., 2-4 days in proliferation medium (EGM2) and 10-16 days in adipogenic differentiation medium. […]

CD56+ cells = test: Differentiation of CD56+ cells in adipogenic medium; assay type: cell-based, human; settings: MDM with or without rosiglitazone or BMP7
Protocol: as §1, §2

[5] = test system: CD31- cells (CD34+/CD45-/CD56-/CD146-/CD31-) from human fetal skeletal muscle; test: Differentiation of CD31- cells into adipocyte-like multilocular cells / brown adipocytes; assay type: cell-based
Protocol: as §1, §2

For `CN(CCOc1ccc(CC2SC(=O)NC2=O)cc1)c1ccccn1` (centres unmarked) [rosiglitazone], the “stimulation of UCP1 mRNA expression” value ([1]; expanded cells (P3), vs untreated control) was 8 fold, the “effect on UCP1 mRNA expression” value ([1]; primary culture cells (PC)) was “no effect” and the “increase of level of expression of UCP1 in muscle” value ([2]; 7 obese type 2 diabetes patients, 8 weeks, 2×4 mg per day, group mean, after vs before treatment) was “about 1.6 fold”. For the same molecule, the “increase of UCP1 level at end of treatment vs. before treatment” value ([2]; individual patients 1-7, 8 weeks rosiglitazone 2×4 mg per day) was 180% and 8% and 310% and 10% and 50% and 80%, the “UCP1 mRNA level after treatment, normalized to cyclophilin A” value ([2]; individual patients 1-7, after 8 weeks rosiglitazone) was 730 arbitrary units and 600 arbitrary units and 556 arbitrary units and 142 arbitrary units and 652 arbitrary units and 453 arbitrary units and 677 arbitrary units and the “UCP1 level at end of treatment relative to control (before treatment)” value ([2]; individual patients 1-7, control = 100%) was 280% and 108% and 410% and 110% and 150% and 100% and 180%. The “UCP1 intensity per nucleus” value (CD31- cells) was 105,542, the “increase of level of UCP1 protein” value (CD31- cells; vs without rosiglitazone) was 7 fold and the “increase of UCP1 expression compared to EGM2 control condition” value [3] was 507-553 fold.

B1: BMP7: recombinant human bone morphogenic protein-7 from R&D Systems (protein, UniProt P18075 293-431, looked up)
Bone morphogenetic protein 7: STGSKQRSQNRSKTPKNQEALRMANVAENSSSDQRQACKKHELYVSFRDLGWQDWIIAPEGYAAYYCEGECAFPLNSYMNATNHAIVQTLVHFINPETVPKPCCAPTQLNAISVLYFDDSSNVILKKYRNMVVRACGCH
B1 was tested, and the “differentiation of CD31+ cells into adipocyte-like multilocular cells” value [4] was “did not differentiate”, the “differentiation of CD56+ cells into adipocyte-like multilocular cells” value (CD56+ cells) was “did not differentiate” and the “differentiation of CD31- cells into brown adipocytes” value ([5]; 6 nM, before induction of differentiation (day -3 or -2 to day 0)) was “strongly promoted”. For the same molecule, the “fraction of CD31- cells differentiated into adipocyte-like multilocular cells” value ([5]; MDM containing the compound) was “virtually all” and the “increase of UCP1 expression compared to EGM2 control condition” value [3] was 78-127 fold.
